The values below come from paper PMC12472391, “Borylated Five-Membered Ring Iminosugars: Synthesis, Spectroscopic Analysis, and Biological Evaluation for Glycosidase Inhibition and Anticancer Properties for Application in Boron Neutron Capture Therapy (BNCT)—Part 1” (Pharmaceuticals, 2025).

One test relates to SJ-G2 glioblastoma cells. The experiment in a line: Cancer screening, MTT growth inhibition. It counts as cell-based. Conditions: for SJ-G2 Glioblastoma, Percentage (%) Cell Growth Inhibition in response to 25 µM of Drug: 72-h exposure. The method, then: (§1) Two assays were run: the dose screen to ascertain cell growth inhibition in response to 25 µM of drug (on a blue background) and the dose response (GI50) (on a green background). For a discussion of BNCT as a radiotherapeutic modality, a rationalisation is provided here.
(§2) All test agents were prepared as stock solutions (20 mM) in dimethyl sulfoxide (DMSO) and stored at −20 °C. Cell lines used in the study included HT29, (colorectal carcinoma); U87, SJ-G2, (glioblastoma); MCF-7, (breast carcinoma); A2780 (ovarian carcinoma); H460 (lung carcinoma); A431 (skin carcinoma); Du145 (prostate carcinoma); BE2-C (neuroblastoma) and MiaPaCa-2 (pancreatic carcinoma); together with the one non-tumour derived normal breast cell line (MCF10A). All cell lines were incubated in a humidified atmosphere 5% CO2 at 37 °C. The cancer cell lines were maintained in Dulbecco’s modified Eagle’s medium (DMEM; Sigma, Australia) supplemented with foetal bovine serum (10%), sodium pyruvate (10 mM), penicillin (100 IUmL^−1), streptomycin (100 µg mL^−1), and L-glutamine (2 mM).
(§3) Growth inhibition was determined by plating cells in duplicate in medium (100 µL) at a density of 2500–4000 cells per well in 96-well plates. On day 0 (24 h after plating), when the cells are in logarithmic growth, medium (100 µL) with or without the test agent was added to each well. After a 72-h drug exposure, growth inhibitory effects were evaluated using the MTT (3-(4,5-dimethyltiazol-2-yl)-2,5-diphenyltetrazolium bromide) assay and absorbance read at 540 nm. The percentage growth inhibition was calculated at a fixed concentration of 25 µM, based on the difference between the optical density values on day 0 and those at the end of drug exposure. Each data point is the mean ± the standard error of the mean (SEM) calculated from three replicates, which were performed on separate occasions and separate cell line passages.

Test [1] relates to Du145 prostate carcinoma cells. Put plainly: Cancer screening, MTT growth inhibition. It counts as cell-based. The following applies: for Du145 Prostate Carcinoma, Percentage (%) Cell Growth Inhibition in response to 25 µM of Drug: 72-h exposure. As for the experimental part:
as §1, §2, §3

Test [2] concerns MCF-7 breast carcinoma cells. Put plainly: Cancer screening, MTT growth inhibition. It counts as cell-based. The following applies: for MCF-7 Breast Carcinoma, Percentage (%) Cell Growth Inhibition in response to 25 µM of Drug: 72-h exposure. The method, then:
as §1, §2, §3

In another test the test system is U87 glioblastoma cells. Put plainly: Cancer screening, MTT growth inhibition. The test is classed as cell-based. The following applies: 72-h exposure. The method, then:
as §1, §2, §3

Test [3] relates to HT29 colon carcinoma cells. The experiment in a line: Cancer screening, MTT growth inhibition. The test is classed as cell-based. The following applies: 72-h exposure. As for the experimental part: as §1, §2, §3
Test [4] deals with BE2-C neuroblastoma cells. The experiment in a line: Cancer screening, MTT growth inhibition. It counts as cell-based. Conditions: 72-h exposure. The method, then:
as §1, §2, §3

The test system of test [5] is A2780 ovarian carcinoma cells. The experiment in a line: Cancer screening, MTT growth inhibition. The test is classed as cell-based. The following applies: 72-h exposure. As for the experimental part:
as §1, §2, §3

The test system of test [6] is A431 skin carcinoma cells. Put plainly: Cancer screening, MTT growth inhibition. Conditions: 72-h exposure. The test is classed as cell-based. The method, then:
as §1, §2, §3

The subject of test [7] is β-D-mannosidase (from snail). The experiment in a line: Glycosidase inhibition, Table 6 (Laboratory 1). The test is classed as biochemical. The essentials: (§4)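 Inhibition was followed via para-nitrophenol release at 400 nm from 2 mM substrate, each enzyme at its optimal pH, reactions in methanol. The maltose-hydrolysing members of the panel (rat maltase pH 6.8, trehalase, amyloglucosidase) ran 10–30 min at 37 °C with a glucose test read at 505 nm.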

Test [8] has as its target T1, α-L-fucosidase (from bovine kidney) (Bos taurus, UniProt Q2KIM0).
T1 construct: purchased Sigma-Aldrich Co
T1 sequence (Q2KIM0 23-468): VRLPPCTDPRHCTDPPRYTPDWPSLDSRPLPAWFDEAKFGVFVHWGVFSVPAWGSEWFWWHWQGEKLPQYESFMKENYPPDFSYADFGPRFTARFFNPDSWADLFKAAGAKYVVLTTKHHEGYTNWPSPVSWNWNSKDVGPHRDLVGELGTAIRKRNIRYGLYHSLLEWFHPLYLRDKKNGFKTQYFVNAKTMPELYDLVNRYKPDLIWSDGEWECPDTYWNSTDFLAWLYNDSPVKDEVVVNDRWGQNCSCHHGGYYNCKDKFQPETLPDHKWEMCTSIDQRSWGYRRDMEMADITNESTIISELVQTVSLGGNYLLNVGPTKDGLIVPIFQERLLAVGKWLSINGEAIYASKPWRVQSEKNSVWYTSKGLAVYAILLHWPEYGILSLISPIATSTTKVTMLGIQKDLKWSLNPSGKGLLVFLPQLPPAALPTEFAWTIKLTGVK
The experiment in a line: Glycosidase inhibition, Table 6 (Laboratory 1). It counts as biochemical. The essentials:
as §4

Test [9] has as its system β-D-glucosidase (bovine liver). The experiment in a line: Glycosidase inhibition, Table 6 (Laboratory 1). The test is classed as biochemical. A digest of the protocol: as §4

On to “borocaptate sodium [BSH, reference compound]”, for which the “SJ-G2 Glioblastoma, Percentage (%) Cell Growth Inhibition in response to 25 µM of Drug” value in the test on SJ-G2 glioblastoma cells is reported as “* 3 ± 8%”. In addition, the “Du145 Prostate Carcinoma, Percentage (%) Cell Growth Inhibition in response to 25 µM of Drug” value in test [1] is “* 0 ± 8%”. Besides, the “MCF-7 Breast Carcinoma, Percentage (%) Cell Growth Inhibition in response to 25 µM of Drug” value in test [2] is “* 15 ± 3%”. For the same compound, the “U87 Glioblastoma, Percentage (%) Cell Growth Inhibition in response to 25 µM of Drug” value in the test on U87 glioblastoma cells is listed as “* <0%”. In addition, the “HT29 Colon Carcinoma, Percentage (%) Cell Growth Inhibition in response to 25 µM of Drug” value in test [3] is “* 3 ± 2%”. The “BE2-C Neuroblastoma, Percentage (%) Cell Growth Inhibition in response to 25 µM of Drug” value in test [4] is reported as “* 10 ± 6%”. Also, in [5], the “A2780 Ovarian Carcinoma, Percentage (%) Cell Growth Inhibition in response to 25 µM of Drug” value is listed as “* 2 ± 5%”. Besides, the “A431 Skin Carcinoma, Percentage (%) Cell Growth Inhibition in response to 25 µM of Drug” value in [6] is reported as “* <0%”. Besides, in test [7] (1000 μM), the “β-D-Mannosidase Snail, inhibition % at 1000 μM” value is “^a NI ^b (19.2%)”. In addition, the “α-L-Fucosidase Bovine Kidney, inhibition % at 1000 μM” value in [8] (1000 μM) is listed as “^a NI ^b (0%)”. For the same compound, in test [9] (1000 μM), the “β-D-Glucosidase Bovine Liver, inhibition % at 1000 μM” value is “^a NI ^b (15%)”.
With `N[C@@H](Cc1ccc(B(O)O)cc1)C(=O)O` [^10B-BPA, reference compound], the “SJ-G2 Glioblastoma, Percentage (%) Cell Growth Inhibition in response to 25 µM of Drug” value in the test on SJ-G2 glioblastoma cells is recorded as “* 5 ± 10%”. Also, in [1], the “Du145 Prostate Carcinoma, Percentage (%) Cell Growth Inhibition in response to 25 µM of Drug” value is “* 15 ± 9%”. Further, the “MCF-7 Breast Carcinoma, Percentage (%) Cell Growth Inhibition in response to 25 µM of Drug” value in test [2] is reported as “* 1 ± 3%”. For the same compound, the “U87 Glioblastoma, Percentage (%) Cell Growth Inhibition in response to 25 µM of Drug” value in the test with U87 glioblastoma cells is “* <0%”. Besides, the “HT29 Colon Carcinoma, Percentage (%) Cell Growth Inhibition in response to 25 µM of Drug” value in [3] is on record as “* 15 ± 4%”. The “BE2-C Neuroblastoma, Percentage (%) Cell Growth Inhibition in response to 25 µM of Drug” value in [4] is on record as “* 10 ± 6%”. For the same compound, in [5], the “A2780 Ovarian Carcinoma, Percentage (%) Cell Growth Inhibition in response to 25 µM of Drug” value was “* 8 ± 4%”. In addition, the “A431 Skin Carcinoma, Percentage (%) Cell Growth Inhibition in response to 25 µM of Drug” value in test [6] is given as “* 4 ± 4%”. In test [7], the “β-D-Mannosidase Snail, inhibition % at 100 μM” value is “^c NI ^d (0.3%)”. For the same compound, the “α-L-Fucosidase Bovine Kidney, inhibition % at 100 μM” value in [8] (100 μM) is given as “^c NI ^d (0%)”. For the same compound, in test [9], the “β-D-Glucosidase Bovine Liver, inhibition % at 100 μM” value is reported as “^c NI ^d (14.2%)”.
Regarding `CC1(C)O[C@H]2O[C@H]3[C@@H]([C@H]2O1)N(Cc1ccccc1)C[C@H]3O` [Compound 3, N-Benzyl-3,6-dideoxy-3,6-imino-1,2-O-isopropylidene-α-D-gulofuranose], the inhibition at 25 µM in the test on SJ-G2 glioblastoma cells (SJ-G2, 72-h exposure, read-out: SJ-G2 Glioblastoma, Percentage (%) Cell Growth Inhibition in response to 25 µM of Drug) is 10%; in [1] (Homo sapiens, DU-145, 72-h exposure, read-out: Du145 Prostate Carcinoma, Percentage (%) Cell Growth Inhibition in response to 25 µM of Drug), < 0%; in test [2] (Homo sapiens, MCF7, 72-h exposure, read-out: MCF-7 Breast Carcinoma, Percentage (%) Cell Growth Inhibition in response to 25 µM of Drug), 7%; in the test with U87 glioblastoma cells (read-out: U87 Glioblastoma, Percentage (%) Cell Growth Inhibition in response to 25 µM of Drug), 5%; in test [3] (Homo sapiens, HT-29, 25 µM, read-out: HT29 Colon Carcinoma, Percentage (%) Cell Growth Inhibition in response to 25 µM of Drug), 10%; in test [4] (Homo sapiens, BE(2)-C, read-out: BE2-C Neuroblastoma, Percentage (%) Cell Growth Inhibition in response to 25 µM of Drug), 10%. In addition, the inhibition at 25 µM amounted to 11% in [5] (Homo sapiens, A2780, 25 µM, read-out: A2780 Ovarian Carcinoma, Percentage (%) Cell Growth Inhibition in response to 25 µM of Drug) and 7% in test [6] (Homo sapiens, A-431, 25 µM, read-out: A431 Skin Carcinoma, Percentage (%) Cell Growth Inhibition in response to 25 µM of Drug). Moreover, the “β-D-Mannosidase Snail, inhibition % at 100 μM” value in [7] was “^c NI ^d (2.7%)”. In test [8], this compound yielded an inhibition at 100 µM of 0%. The “β-D-Glucosidase Bovine Liver, inhibition % at 100 μM” value in [9] was “^c NI ^d (31.9%)”.
